Experimental data from patent US11753399B2, “Therapeutic compounds” (Gilead Sciences, Inc., priority 2018, dated 2023).
Where two headings read alike, the source gives them in different places.

Tests used:
[1] = Test B: Cytotoxicity Assay (same protocol as Test A, uninfected cells); assay type: cell-based; conditions: human, uninfected MT-4 cells, CellTiter-Glo
Procedure: MT-4 cells were next mixed with HIV-IIIb at a multiplicity of infection (m.o.i.) of 0.003 for 1 hour, after which time 35 μL of virus/cell mixture (2000 cells) was immediately added to each well containing 40 μL of diluted compound. The plates were then incubated at 37° C. for 5 days. After 5 days of incubation, 25 μl of 2× concentrated CellTiter-Glo Reagent (catalog #G7571, Promega Biosciences, Inc., Madison, Wis.) was added to each well containing MT-4 cells. Cell lysis was carried out by incubating at room temperature for 10 min and then chemiluminescence was read. […] Compound cytotoxicity and the corresponding CC50 values was determined using the same protocol as described in the antiviral assay (Test A) except that uninfected cells were used.

[2] = test system: HIV-IIIb; assay: Test A: Antiviral Assay in MT4 Cells; assay type: cell-based, HIV-1; conditions: for inhibition at 0.01 µM: read-out: % inhibition at 0.01 μM; for inhibition at 0.2 µM: read-out: % inhibition at 0.20 μM
Procedure: MT-4 cells were next mixed with HIV-IIIb at a multiplicity of infection (m.o.i.) of 0.003 for 1 hour, after which time 35 μL of virus/cell mixture (2000 cells) was immediately added to each well containing 40 μL of diluted compound. The plates were then incubated at 37° C. for 5 days. After 5 days of incubation, 25 μl of 2× concentrated CellTiter-Glo Reagent (catalog #G7571, Promega Biosciences, Inc., Madison, Wis.) was added to each well containing MT-4 cells. Cell lysis was carried out by incubating at room temperature for 10 min and then chemiluminescence was read.

[3] = Human immunodeficiency virus 1, MT4, 120 h, inhibition of virus-induced cell killing, from dose response curve at 0.01 μM (10 nM), MT-4 cells, HIV-IIIb, 5 days, values normalized to 100%
[4] = Human immunodeficiency virus 1, MT4, 120 h, inhibition of virus-induced cell killing, from dose response curve at 0.20 μM (200 nM), MT-4 cells, HIV-IIIb, 5 days, values normalized to 100%
[5] = Human immunodeficiency virus 1, IIIB, MT4, 120 h

Row | Structure (SMILES) | CC50 at 5 days [1] [µM] | inhibition at 0.01 µM [2, 3] [%] | inhibition at 0.2 µM [2, 4] [%] | inhibition at 0.01 µM [2, 5] [%] | inhibition at 0.2 µM [2, 5] [%]
1 | CC(C)(C#Cc1ccc(-c2ccc(Cl)c3c(NS(=O)(=O)C4CC4)nn(CC(F)F)c23)c([C@H](Cc2cc(F)cc(F)c2)NC(=O)Cn2nc(C(F)F)c3c2C(F)(F)CCC3(F)F)n1)S(=O)(=O)C1CC1 [Example 33] | > 57.1 | 97 | 97 | – | –
2 | Cn1nc(NS(C)(=O)=O)c2c(Cl)ccc(-c3ccc(C#CC(C)(C)S(=O)(=O)C4CC4)nc3[C@H](Cc3cc(F)cc(F)c3)NC(=O)Cn3cc(C(F)(F)F)cn3)c21 [Example 65] | > 50 | 27 | 100 | – | –
3 | Cn1nc(NS(C)(=O)=O)c2c(Cl)ccc(-c3ccc(C#CC(C)(C)S(=O)(=O)C4CC4)nc3[C@H](Cc3cc(F)cc(F)c3)NC(=O)Cn3nc(C(F)F)c4c3C(F)(F)[C@@H]3C[C@H]43)c21 [Example 4] | – | – | – | 92 | 92
4 | CCS(=O)(=O)Nc1nn(C)c2c(-c3ccc(C#CC(C)(C)S(=O)(=O)C4CC4)nc3[C@H](Cc3cc(F)cc(F)c3)NC(=O)Cn3nc(C(F)(F)F)c4c3C(F)(F)[C@@H]3C[C@H]43)ccc(Cl)c12 [Example 7] | > 57.1 | 94 | 94 | – | –
5 | CCS(=O)(=O)Nc1nn(CC(F)F)c2c(-c3ccc(C#CC(C)(C)S(=O)(=O)C4CC4)nc3[C@H](Cc3cc(F)cc(F)c3)NC(=O)Cn3nc(C(F)F)c4c3C(F)(F)[C@@H]3C[C@H]43)cccc12 [Example 51] | 51.2 | 67 | 91 | – | –
6 | Cn1nc(Nc2nnc(C3(O)CC3)o2)c2c(Cl)ccc(-c3ccc(C#CC(C)(C)S(=O)(=O)C4CC4)nc3[C@H](Cc3cc(F)cc(F)c3)NC(=O)Cn3nc(C(F)F)c4c3C(F)(F)[C@@H]3C[C@H]43)c21 [Example 28] | 16.5 | 99 | 99 | – | –
7 | CCS(=O)(=O)Nc1nn(CC(F)F)c2c(-c3ccc(C#CC(C)(C)S(=O)(=O)C4CC4)nc3[C@H](Cc3cc(F)cc(F)c3)NC(=O)Cn3nc(C(F)(F)F)c4c3C(F)(F)[C@@H]3C[C@H]43)ccc(Cl)c12 [Example 11] | > 57.1 | 92 | 92 | – | –
8 | CC1(S(=O)(=O)Nc2nn(CC(F)F)c3c(-c4ccc(C#CC(C)(C)S(=O)(=O)C5CC5)nc4[C@H](Cc4cc(F)cc(F)c4)NC(=O)Cn4nc(C(F)F)c5c4C(F)(F)CCC5(F)F)ccc(Cl)c23)CC1 [Example 37] | > 57.1 | 92 | 92 | – | –
9 | CC(C)(C#Cc1ccc(-c2ccc(Cl)c3c(NS(C)(=O)=O)nn(CC(F)F)c23)c([C@H](Cc2cc(F)cc(F)c2)NC(=O)Cn2nc(C(F)F)c3c2C(F)(F)[C@@H]2C[C@H]32)n1)S(=O)(=O)C1CC1 [Example 8] | > 57.1 | 94 | 94 | – | –
10 | CCS(=O)(=O)Nc1nn(CC(F)(F)F)c2c(-c3ccc(C#CC(C)(C)S(=O)(=O)C4CC4)nc3[C@H](Cc3cc(F)cc(F)c3)NC(=O)Cn3nc(C(F)(F)F)c4c3C(F)(F)[C@@H]3C[C@H]43)ccc(Cl)c12 [Example 67] | > 50 | 13 | 0 | – | –
11 | CCS(=O)(=O)Nc1nn(C)c2c(-c3ccc(C#CC(C)(C)S(=O)(=O)C4CC4)nc3[C@H](Cc3cc(F)cc(F)c3)NC(=O)Cn3nc(C(F)F)c4c3C(F)(F)[C@@H]3C[C@H]43)ccc(Cl)c12 [Example 6] | > 57.1 | 100 | 100 | – | –
12 | CC(C)(C#Cc1ccc(-c2ccc(F)c3c(NS(=O)(=O)C4CC4)nn(CC(F)F)c23)c([C@H](Cc2cc(F)cc(F)c2)NC(=O)Cn2nc(C(F)(F)F)c3c2C(F)(F)[C@@H]2C[C@H]32)n1)S(=O)(=O)C1CC1 [Example 57] | > 57.1 | 59 | 91 | – | –
